# Patent publication US20070218147A1, “Peroxisome Proliferator-Activated Receptor (Ppar) Activator, and Drugs, Supplements, Functional Foods and Food Additives Using the Same” (ARKRAY, INC., priority 2004, published 2007)
# Target: T1, human PPARγ ligand-binding domain (Homo sapiens, UniProt P37231)
# T1 construct: expressed in transfected cells; host or cells: CV-1 cells (African green monkey kidney)
# T1 sequence (P37231 204-505): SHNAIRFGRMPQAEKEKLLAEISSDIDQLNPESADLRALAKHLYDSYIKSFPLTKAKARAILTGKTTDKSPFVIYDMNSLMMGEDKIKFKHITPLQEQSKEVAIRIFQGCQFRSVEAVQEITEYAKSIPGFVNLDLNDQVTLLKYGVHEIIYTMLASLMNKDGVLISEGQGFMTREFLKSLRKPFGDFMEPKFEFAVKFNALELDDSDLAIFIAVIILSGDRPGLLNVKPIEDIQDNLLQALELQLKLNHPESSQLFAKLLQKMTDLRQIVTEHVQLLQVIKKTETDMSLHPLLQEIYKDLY
# Experiment: GAL4-hPPARγ luciferase reporter assay (PPARγ ligand activity) in transfected CV-1 cells
# Type: cell-based
# Conditions: for PPARγ ligand activity: 24 hour incubation, CV-1 cells, luciferase activity relative to non-treatment control (DMSO) = 100, average ± standard error, n=4
# Experimental: First, CV-1 cells (cultured cells derived from kidneys of male African green monkeys) were implanted on 24-well culture plates so as to be […] and cultured at 37° C. in 5% CO2 for 24 hours. As a medium, DMEM (Dulbecco's Modified Eagle Medium; manufactured by GIBCO) containing 10% FBS (fetal bovine serum) and a 10 mg/mL penicillin streptomycin solution was used. Next, using Lipofectamine system (manufactured by Invitrogen Corporation), pM-hPPARγ and p4×UASg-tk-luc were transfected into the cultured CV-1 cells. The above-noted pM-hPPARγ was a vector for expressing fused protein containing residues 1 - 147 of GAL4 binding domain and residues 204 - 505 of human PPARγ ligand-binding domain, whereas the above-noted p4×UASg-tk-luc was a reporter plasmid containing four copies of an upstream activating sequence (UAS) for GAL4 binding domain and a thymidine kinase gene promoter in front of a luciferase gene. After the transfection, the cells were cultured for about 24 hours, and then, the media for the cells were changed to media containing β-cryptoxantine at respective concentrations (0.1, 1.0, 10 and 70 μM) or media for non-treatment control, followed by an additional 24 hour incubation. The above-noted media containing β-cryptoxantine were prepared by adding β-cryptoxantine dissolved in dimethyl sulfoxide (DMSO) to the media, whereas the media for non-treatment control were prepared by adding only DMSO to the media. After the incubation, the cells were lysed for luciferase activation assay using a Dual-Luciferase Reporter Gene Assay system (manufactured by Promega Corporation) (measurement group).
# Similarly to the measurement group, as a control group, the luciferase activation assay was performed using pM (a vector containing residues 1 - 147 of GAL4 binding domain and not containing residues 204-505 of PPARγ ligand-binding domain in pM-hPPARγ) instead of pM-hPPARγ. For each sample, the ratio between average light-emission intensities of the measurement group and the control group (n=4) (measurement group/control group) was calculated, and a luciferase activity relative to the non-treatment control was determined as the PPARγ ligand-binding activity of the sample.
structure (smiles),measurement,setting,value
CC1=C(/C=C/C(C)=C/C=C/C(C)=C/C=C/C=C(C)/C=C/C=C(C)/C=C/C2=C(C)C[C@@H](O)CC2(C)C)C(C)(C)CCC1 [β-cryptoxantine],activity of PPARγ (result in words),"0.1 to 70 μM, activity increased in keeping with the concentration",improved the activity of PPARγ
same,PPARγ ligand activity,addition concentration 0.1 μM,119 ± 18.4
same,PPARγ ligand activity,addition concentration 1.0 μM,159 ± 25.0
same,PPARγ ligand activity,addition concentration 10 μM,166 ± 21.7
same,PPARγ ligand activity,addition concentration 70 μM,246 ± 22.5
